Laboratory results: patent US7968563B2, “Oxime and hydroxylamine substituted imidazo[4,5-c] ring compounds and methods” (3M Innovative Properties Company, priority 2005, dated 2011)
Where a name gives a salt, the structure may show the parent alone.

| melting point [°C] | SMILES |
| --- | --- |
| 255 to 257 | CONCc1nc2c(N)nc3ccccc3c2n1CC(C)(C)O (as salt: hydrochloride) [Example 16, 1-(2-Hydroxy-2-methylpropyl)-2-{[methoxylamino]methyl}-1H-imidazo[4,5-c]quinolin-4-amine; hydrochloride] |
| 182 to 184 | CON=C(C)CCc1nc2c(N)nc3ccccc3c2n1CC(C)(C)O [Example 5, 4-[4-Amino-1-(2-hydroxy-2-methylpropyl)-1H-imidazo[4,5-c]quinolin-2-yl]butan-2-one O-methyloxime] |
| 178 to 181 | CONCc1nc2c(N)nc3ccccc3c2n1CC1(O)CCC1 [Example 12, 1-({4-Amino-2-[(methoxyamino)methyl]-1H-imidazo[4,5-c]quinolin-1-yl}methyl)cyclobutanol] |
| 219 to 221 | CON(C)Cc1nc2c(N)nc3ccccc3c2n1CC1(O)CCC1 [Example 13, 1-[(4-Amino-2-{[methoxy(methyl)amino]methyl}-1H-imidazo[4,5-c]quinolin-1-yl)methyl]cyclobutanol] |
| 220 to 222 | CON(C)Cc1nc2c(N)nc3ccccc3c2n1CC(C)(C)O [Example 15, 1-(2-Hydroxy-2-methylpropyl)-2-{[methoxy(methyl)amino]methyl}-1H-imidazo[4,5-c]quinolin-4-amine] |
| 169 to 171 | CONCc1nc2c(N)nc3ccccc3c2n1CC1CCOCC1 [Example 19, 2-[(Methoxyamino)methyl]-1-(tetrahydro-2H-pyran-4-ylmethyl)-1H-imidazo[4,5-c]quinolin-4-amine] |

Second part, the compound before the results:

| SMILES | melting point [°C] |
| --- | --- |
| CON=Cc1nc2c(N)nc3ccccc3c2n1CC(C)C [Example 4, 4-Amino-1-(2-methylpropyl)-1H-imidazo[4,5-c]quinoline-2-carbaldehyde O-methyloxime] | 181 to 183 |
| CONCc1nc2c(N)nc3cc(OCc4ccccc4)ccc3c2n1CC1CCOCC1 [Example 6, 7-(Benzyloxy)-2-[(methoxyamino)methyl]-1-(tetrahydro-2H-pyran-4-ylmethyl)-1H-imidazo[4,5-c]quinolin-4-amine] | 190 to 193 |
| CON(C)Cc1nc2c(N)nc3cc(OCc4ccccc4)ccc3c2n1CC1CCOCC1 [Example 7, 7-(Benzyloxy)-2-{[methoxy(methyl)amino]methyl}-1-(tetrahydro-2H-pyran-4-ylmethyl)-1H-imidazo[4,5-c]quinolin-4-amine] | 159 to 161 |
| CON(Cc1nc2c(N)nc3cc(OCc4ccccc4)ccc3c2n1CC1CCOCC1)S(C)(=O)=O [Example 8, N-{[4-Amino-7-(benzyloxy)-1-(tetrahydro-2H-pyran-4-ylmethyl)-1H-imidazo[4,5-c]quinolin-2-yl]methyl}-N-methoxymethanesulfonamide] | 195 to 197 |
| CONCc1nc2c(N)nc(C)c(C)c2n1CC(C)C [Example 9, 1-Isobutyl-2-[(methoxyamino)methyl]-6,7-dimethyl-1H-imidazo[4,5-c]pyridin-4-amine] | 154 to 156 |
| CON(C)Cc1nc2c(N)nc(C)c(C)c2n1CC(C)C [Example 10, 1-Isobutyl-2-{[methoxy(methyl)amino]methyl}-6,7-dimethyl-1H-imidazo[4,5-c]pyridin-4-amine] | 132 to 134 |
| CON(Cc1nc2c(N)nc(C)c(C)c2n1CC(C)C)C(=O)C1CC1 [Example 11, N-[(4-Amino-1-isobutyl-6,7-dimethyl-1H-imidazo[4,5-c]pyridin-2-yl)methyl]-N-methoxycyclopropanecarboxamide] | 135 to 137 |
| CO/N=C/c1nc2c(N)nc(C)c(C)c2n1CC(C)C [Example 14, 4-Amino-1-isobutyl-6,7-dimethyl-1H-imidazo[4,5-c]pyridine-2-carbaldehyde O-methyloxime] | 179 to 181 |
| CONCc1nc2cnc3ccccc3c2n1CC1CCOCC1 [Example 17, 2-[(Methoxyamino)methyl]-1-(tetrahydro-2H-pyran-4-ylmethyl)-1H-imidazo[4,5-c]quinoline] | 58 to 63 |
| CON(C)Cc1nc2cnc3ccccc3c2n1CC1CCOCC1 [Example 18, 2-{[Methoxy(methyl)amino]methyl}-1-(tetrahydro-2H-pyran-4-ylmethyl)-1H-imidazo[4,5-c]quinoline] | 142 to 144 |
| CON(C)Cc1nc2c(N)nc3ccccc3c2n1CC1CCOCC1 [Example 20, 2-{[Methoxy(methyl)amino]methyl}-1-(tetrahydro-2H-pyran-4-ylmethyl)-1H-imidazo[4,5-c]quinolin-4-amine] | 223 to 226 |
